Measured values as given in patent publication US20210246140A1, “MODULATORS OF METABOTROPIC GLUTAMATE RECEPTOR 2” (The General Hospital Corporation, priority 2020, published 2021).

What was measured:
[1] = PAMPA-BBB (parallel artificial membrane permeation assay); settings: pH 7.4, 18 h
Determination of Log P = assay type: physicochemical; settings: experimental lipophilicity
Method: Determination of Log P The Log P was determined using a reversed-phase HPLC method. First, seven reference compounds were examined to obtain the linear regression of the log P against the log of capacity factors by the expression: log Pow=a+b*log k. The Log P of these reference compounds was already been determined. The capacity factor k was calculated by the expression: k=(tR−t0)/t0. The retention time tR of test compound was determined on the HPLC (Agilent 1260 infinity II LC System, XTerra™ MS Cis 5μ 2.1×250 mm, methanol/water=75/25, 0.25 mL/min). The dead-time to was measured by using thiourea. The linear regression equation of the Log P against the log of capacity factors was generated in Excel: log Pow=3.049+2.429*log k, where R^2 was 0.9964. The retention time of compound 1, 2, and 7 was also determined on the HPLC under the same condition and each test was repeated three times (FIG. 5).
The experimental lipophilicity was measured by using liquid-liquid partition between n-octanol and water (“shake-flask method”) [see ref. 54]. […] The plasma protein binding comprises compounds' binding to albumin, α1-acid glycoprotein and lipoproteins once delivered to the bloodstream. This property was evaluated for compounds 1 and 2 by equilibrium dialysis [see ref. 56], where two chambers were separated by a dialysis membrane (MWCO 8 kD). The plasma protein bindings of 1 and 2 are 87.2% and 88.7%, respectively (see FIGS. 20 and 6). Therefore, the high plasma free fraction of compounds 1 and 2 (>10%) would allow enough free drug concentration in blood stream to reach the brain targets.

[2] = Solution stability in aqueous buffers at different pH; assay type: physicochemical; settings: buffer solutions at pH 5.0, 7.4 and 9.4, 37° C., 2 h
Method: The solution stability of 3 was examined in the aqueous buffers at different pH values. 50 μL of compound in DMSO (0.25 mM) was added to the sodium acetate-KCl—HCl buffer (950 μL, 20 mM, pH 5.0), phosphate buffer (950 μL, 20 mM, pH 7.4), and boric acid-KCl—NaOH buffer (950 μL, 20 mM, pH 9.4), respectively. The mixtures were incubated for 2 h at 37° C. and analyzed by HPLC (Phenomenex Luna® column, 5 μm C18, 100 Å, 250×4.6 mm, eluents: CH3CN/H2O in 0.1% formic acid).
The in vitro plasma and liver microsomal stability of 1 and 2 were studied by incubating the test compounds in rat serum and rat liver microsomes as well as NADPH cofactor, respectively, using previously published methods [see refs. 57, 58]. Diltiazem and ML128 (a mGluR4 PAM) [see refs. 59, 60] were used as co-assay QC controls for plasma and microsomal stability assays, respectively, to ensure that the assays were operating properly, and that the activity of the plasma and microsomes were consistent with established criteria. […] The solution stability of 1 was evaluated with buffer solutions at pH 5.0, 7.4 and 9.4, respectively (FIGS. 10 and 20) [see refs. 61].

[3] = tested on: other mGlu receptors (mGluR1, mGluR3, mGluR4, mGluR5, mGluR6, mGluR8); assay: Selectivity among mGluR subtypes (Ca2+ mobilization assay and cAMP assay); assay type: cell-based; settings: mGluR1 and mGluR5 by Ca2+ mobilization; mGluR3, 4, 6, 8 by cAMP assay
Method: The Gq coupled receptors (mGluR1 and mGluR5) were tested using Ca^2+ mobilization assay. mGluR1 stable cell lines were plated into poly-L-lysine (PLL) coated 384-well black clear bottom cell culture plates with complete Basal Medium Eagle (BME) buffer, which was composed of 10% dialyzed FBS, penicillin G (100 units/mL), streptomycin (100 μg/mL) with tetracycline (1 μg/mL) at density of 20,000 cells in 40 μl per well for overnight. On the other hand, HEK-293 Cells transiently transfected using the calcium phosphate method with cDNA encoding mGluR5 for 40 h were plated into the plate with complete BME at density of 20,000 cells in 40 μL per well for 8 h. mGluR1 stable cells or cells transiently expressing mGluR5 were incubated with 20 μL of the calcium dye (FLIPR Calcium 4 Assay Kit; Molecular Devices) diluted in the assay buffer (1×FIBSS, 2.5 mM probenecid, and 20 mM HEPES, pH 7.4) for 45 min at 37° C. and 15 min at room temperature. To measure agonist activity of receptors, the drug plates were prepared with different concentrations of test or reference compound at 3 times the desired final concentration. […] Once loaded in FLIPR (Molecular Devices), basal fluorescence was measured for 10 s, then 10 μL of test or reference compounds were added, followed by continued fluorescence measurement for an additional 120 s. […]

[4] = Microsomal stability in rat liver microsomes; assay type: in vitro ADME
Method: Compound stability in rat liver microsomal was tested using a published method. [see refs. 57, 58] In a vial 1.5 μL of test compound (1 mM in DMSO stock solution) was mixed with 432 μL of PBS (50 mM, pH 7.4). The mixture was kept at 37° C. for 10 min before adding 13 μL of Sprague-Dawley rat liver microsomes (Sigma-Aldrich, No. M9066). The vial was vortexed and shaken at 37° C. for 5 min, followed by addition of 50 μL of NADPH (10 mM in PBS stock solution) to start the reaction. The mixture was incubated at 37° C. for 0, 5, 15, 30, 45 min, respectively, and quenched by addition of 250 μL of ice-cold acetonitrile and 3 μL of the internal standard (0.5 mM in DMSO). The quenched solutions were centrifuged at 10,000 g for 15 min. The supernatant was collected and quantitated by RP-HPLC (Phenomenex Luna® column 5 μC18, 100 Å, 250×4.6 mm; 0.7 mL/min, 15 min, Acetonitrile/water/0.1% FA). The procedure was repeated three times for each compound. Compound 1-OH was used as internal standard and compound ML128 served as positive control. The percentage of remaining intact test-compound was calculated by (peak area at the specific time point)/(peak area at 0 min)×100%. Each procedure was repeated three times (FIGS. 8 and 9). For FIG. 8, the natural logarithm (In) of peak area ratio (test compound peak area/internal standard peak area) was plotted against time and the gradient of the line was determined. Subsequently, the half-life (t1/2) min was calculated as 0.693/k, where the elimination rate constant (k) equals to negative gradient. V (μL/mg) was obtained as a ratio of volume of incubation (μL)/protein in the incubation (mg). Finally, the intrinsic clearance (CLint) (μL/min/mg protein) was calculated as V×0.693/t1/2.
The in vitro plasma and liver microsomal stability of 1 and 2 were studied by incubating the test compounds in rat serum and rat liver microsomes as well as NADPH cofactor, respectively, using previously published methods [see refs. 57, 58]. […] The solution stability of 1 was evaluated with buffer solutions at pH 5.0, 7.4 and 9.4, respectively (FIGS. 10 and 20) [see refs. 61].

- effective permeability Pe [1]: 9.2 ×10⁻⁶ cm/s
- Log P (Determination of Log P): 3.65
- solution stability [2]: relatively stable
- microsomal CLint at 3 µM ([4]; Sprague-Dawley, pH 7.4, rat liver microsomes, read-out: intrinsic clearance CLint): 17.9 µL/min/mg
- microsomal stability ([4]; rat liver microsomes with NADPH, ML128 as positive control): reasonable microsomal stability
SMILES: COc1cc(C(F)(F)F)ccc1C1CCN(Cc2nc3ncccc3n2C)CC1 [Compound 1]
- selectivity against other mGlu receptor subtypes [3]: > 100 fold
